Source: a compilation of properties of binary mixtures (doi:10.2298/jsc190413047v)

Assay: xn = mol fraction of the nth substance listed
Conditions: 100 kPa

CCCCn1cc[n+](C)c1C.O=S(=O)([N-]S(=O)(=O)C(F)(F)F)C(F)(F)F + O=C1CCCO1
electrical conductivity [S/m]
Conditions | 293.15 K | 298.15 K | 303.15 K | 308.15 K | 313.15 K | 318.15 K | 323.15 K
x2 = 0 | 0.178 | 0.23 | 0.289 | 0.351 | 0.426 | – | –
x2 = 0.1014 | – | 0.262 | 0.325 | 0.398 | – | 0.569 | 0.669
x2 = 0.1987 | 0.246 | 0.301 | 0.367 | 0.442 | 0.525 | 0.619 | 0.739
x2 = 0.3 | – | 0.37 | – | – | 0.631 | 0.729 | 0.842
x2 = 0.4001 | 0.381 | 0.465 | 0.567 | 0.67 | 0.787 | 0.904 | 1.03
x2 = 0.4995 | 0.511 | 0.613 | 0.722 | 0.861 | 0.976 | 1.1 | 1.27
x2 = 0.5994 | 0.706 | 0.807 | 0.934 | 1.07 | 1.22 | 1.36 | 1.52
x2 = 0.7012 | 0.882 | 1.01 | 1.14 | – | – | – | 1.74
x2 = 0.8001 | – | 1.25 | 1.39 | 1.53 | 1.68 | 1.83 | 1.99
x2 = 0.8496 | 1.19 | 1.31 | 1.45 | 1.58 | 1.72 | 1.85 | 2
x2 = 0.8996 | 1.18 | – | 1.41 | 1.53 | 1.66 | 1.78 | 1.91
x2 = 0.9468 | 0.849 | 0.927 | – | 1.1 | 1.2 | 1.3 | 1.41

O=C1CCCO1 + CCCC[N+]1(C)CCCC1.O=S(=O)([N-]S(=O)(=O)C(F)(F)F)C(F)(F)F
x1 = 1
Conditions | electrical conductivity [S/m] | viscosity [mPa·s]
298.15 K | 0.001 | 1.73
303.15 K | 0.001 | 1.63
308.15 K | 0.001 | 1.52
313.15 K | 0.001 | 1.42
318.15 K | 0.001 | 1.35
323.15 K | 0.002 | 1.3
